Where no end group is shown, it is not given here.
Key:
human skin cell HaCat = test: boyden chamber assay of skin cell migration; assay type: cell-based; parameters: migration of skin cells relative to a control: dose or concentration left out as unconfirmed; details: for skin cell migratory activity relative to the control: 1 μM peptide (most effective concentration), HaCat, control: medium without peptide; for migration of skin cells relative to a control: boyden chamber assay
Description: To examine whether each of the peptides synthesized in Example 1 could promote the migration of skin cells, a boyden chamber assay was used.
In the chamber of two compartments separated by a microporous membrane, 50 μL of a suspension containing the human skin cell HaCat at a concentration of 5×10^3 CFU/ml was placed in the upper compartment and were allowed to migrate through the pores of the membrane into the lower compartment in which a 0.25˜16 μM dilution of each of the peptides in a skin cell culture medium was present. The cells which migrated into the lower compartment were counted to determine the ability of each of the peptides to promote skin cell […] (FIG. 1). For a control, a skin cell culture medium containing none of the peptides was used.

full-thickness wound = full-thickness wound healing on the back of mice; assay type: in vivo; details: 50 μL of 1 μM peptide applied to wound once a day for two days
Description: Mice were shaved on the back using an electric razor, followed by forming a full-thickness wound 1.1 cm in diameter using surgical scissors. Application of 50 μL of 1 μM peptide 17 to the wound was continued for 2 days, after which the size of the wound was measured. The wound healing activity of peptide 17 was expressed by the reduced area of the wound (FIG. 3). As the control, the mice were treated with distilled water instead of peptide 17.

HaCat = test: scratched wound-healing assay of skin cell regeneration; assay type: cell-based, human; details: 1 μM peptide, 12 hrs incubation
Description: To examine whether each of the peptides synthesized in Example 1 can enhance the regeneration of skin cells, a scratched wound-healing assay was used. 900 μL of a suspension containing HaCat at a concentration of 1×10^5 CFU/ml was placed in each well of 12-well plates and incubated for 3 days. […] A clear zone was set at the center of each well of the plate using a yellow tip. After incubation for 12 hrs, a reduced area of the clear zone was measured to determine the effect of each peptide on the regeneration of skin cells (FIG. 2). For a control, no peptides were used.

| Sequence | skin cell migratory activity relative to the control (human skin cell HaCat) | migration of skin cells relative to a control (human skin cell HaCat) | rate of reduction of wound area versus distilled water control (full-thickness wound) [fold] | rate of regeneration of skin cells (reduced area of clear zone) versus no peptide (HaCat) [fold] |
| --- | --- | --- | --- | --- |
| APKAMKLLKKLLKLQKKGI (APKAMKLLKKLLKLQKKGI-NH2) [Peptide 17] | about 4.5 times that of the control | 4.5 times higher than a control | 7 | 2.5 |
| APKAMRLLRRLLRLQKKGI (APKAMRLLRRLLRLQKKGI-NH2) [Peptide 26] | about 4.5 times that of the control | 4.5 times higher than a control |  | 2.5 |
